Literature values, collected in patent US20210128584A1, “USE OF GLUCOCORTICOID RECEPTOR ANTAGONISTS FOR THE TREATMENT OF AMYOTROPHIC LATERAL SCLEROSIS” (Corcept Therapeutics Incorporated, priority 2008, published 2021).

## CC#C[C@]1(O)CC[C@H]2[C@@H]3CCC4=CC(=O)CCC4=C3[C@@H](c3ccc(N(C)C)cc3)C[C@@]21C [Mifepristone, 17β-hydroxy-11β-(4-dimethyl-aminophenyl)-17α-(1-propynyl)-estra-4,9-dien-3-one]
  fraction of the daily dose excreted in the urine: less than 0.5%
